Tests used:
[1] = system: engorged adult female cattle ticks (Boophilus microplus); test: Boophilus microplus injection test (BOOPMI inj); type: in vivo; conditions: assessed after 7 days
Outline: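 1 μl of compound in DMSO is injected into the abdomen of 5 engorged females per group, which are then held in a climate-controlled room. After 7 days, egg-laying and egg fertility are scored, with unclear eggs kept about 42 days until hatch; 100% means no fertile eggs laid.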

[2] = system: adult cat fleas (Ctenocephalides felis); test: Ctenocephalides felis oral test (CTECFE); type: in vivo; conditions: 100 ppm, oral in cattle blood, after 2 days
Outline: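 About 20 unfed adult fleas fed through a parafilm membrane on citrated cattle blood containing compound, added from a DMSO stock and diluted to test concentration. Kill % was scored after 2 days, where 100% means all fleas dead and 0% means none.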

[3] = system: L1 larvae of the Australian sheep blowfly (Lucilia cuprina); test: Lucilia cuprina test (LUCICU); type: in vivo; conditions: 100 ppm, after 2 days
Outline: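 About 20 L1 larvae placed in vessels with minced horsemeat containing compound (DMSO formulation diluted with water to test concentration). Kill in % scored after 2 days.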

[4] = system: adult houseflies (Musca domestica); test: Musca domestica test (MUSCDO); type: in vivo; conditions: 100 ppm, after 2 days
Outline: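 Ten adult houseflies housed with a sponge carrying sugar solution plus compound, formulated in DMSO and diluted with water to test concentration. Mortality (%) scored after 2 days; 100% = all flies dead.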

[5] = system: southern root-knot nematode (Meloidogyne incognita); test: Meloidogyne incognita test; type: in vivo; conditions: 20 ppm, after 14 days
Procedure: Meloidogyne incognita Test Solvent: 125.0 parts by weight of acetone To produce a suitable active compound formulation, 1 part by weight of active compound is mixed with the stated amount of solvent and the concentrate is diluted with water to the desired concentration. Vessels are filled with sand, active compound solution, an egg/larvae suspension of the southern root-knot nematode (Meloidogyne incognita) and lettuce seeds. The lettuce seeds germinate and the plants develop. The galls develop on the roots. After 14 days, the nematicidal efficacy in % is determined by the formation of galls. 100% means that no galls were found; 0% means that the number of galls on the treated plants corresponds to the untreated control.

[6] = system: larvae of the mustard beetle (Phaedon cochleariae); test: Phaedon cochleariae spray test (PHAECO); type: in vivo; conditions: 100 g/ha, after 7 days
Outline: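 Compound dissolved in acetone/dimethylformamide and diluted with water containing 1000 ppm alkylaryl polyglycol ether emulsifier to test concentrations. Efficacy in % scored after 7 days: 100% means all beetle larvae killed, 0% none killed.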

[7] = system: caterpillars of the armyworm (Spodoptera frugiperda); test: Spodoptera frugiperda spray test (SPODFR); type: in vivo; conditions: 100 g/ha, spray, after 7 days
Outline: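 Maize leaf discs sprayed with compound in acetone/dimethylformamide diluted in water with 1000 ppm alkylaryl polyglycol ether emulsifier, dried, then infested with armyworm caterpillars. Efficacy in % after 7 days (100% = all caterpillars killed, 0% = none).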

[8] = system: greenhouse red spider mite (Tetranychus urticae); test: Tetranychus urticae spray test, OP-resistant (TETRUR); type: in vivo; conditions: 100 g/ha, spray, after 6 days
Outline: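 Bean (Phaseolus vulgaris) leaf discs infested with all stages of OP-resistant Tetranychus urticae were sprayed with compound in acetone/DMF diluted in water with 1000 ppm emulsifier. Efficacy was scored as % mites killed after 6 days.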

[9] = system: L2 larvae of the banded cucumber beetle (Diabrotica balteata); test: Diabrotica balteata drench test (DIABBA); type: in vivo; conditions: 20 ppm, 8 dat
Procedure: Diabrotica balteata—Drench Test (DIABBA) Solvent: 7 parts by weight of dimethylformamide Emulsifier: 2 parts by weight of alkylaryl polyglycol ether To produce a suitable active compound formulation, 1 part by weight of active compound is mixed with the specified amounts of solvent and emulsifier, and the concentrate is diluted with water to the desired concentration, it being necessary to include the volume of soil which is drenched in the calculation. It should be ensured that a concentration of 40 ppm of emulsifier in the soil is not exceeded. To produce further test concentrations, water is used for dilution. […] After one day, 25 L2 larvae of the banded cucumber beetle (Diabrotica balteata) are added. After 8 days, the efficacy in % is determined 100% means that all 5 plants have germinated and grown; 0% means that none of the plants has emerged.

[10] = log P by HPLC (EEC directive 79/831 Annex V.A8); type: physicochemical; conditions: 43° C., acidic range pH 2.7; for log P: HPLC, reversed-phase column (C18)
Outline: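 Measured by reversed-phase HPLC on a C18 column at 43 °C per EEC directive 79/831 Annex V.A8. Calibration used unbranched alkan-2-ones (C3–C16) of known log P.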

[11] = system: Tick nymphs (Amblyomma hebraeum); test: Amblyomma hebraeum test (tick nymph immersion); type: in vivo; conditions: 100 ppm, after 42 days
Procedure: Amblyomma Hebaraeum Test Solvent: dimethyl sulphoxide To produce a suitable active compound formulation, 10 mg of active compound are mixed with 0.5 ml of dimethyl sulphoxide, and the concentrate is diluted with water to the desired concentration. Tick nymphs (Amblyomma hebraeum) are placed into perforated plastic beakers and immersed in the desired concentration for one minute. The ticks are transferred on filter paper into a Petri dish and stored in a climate-controlled cabinet. After 42 days, the kill in % is determined. 100% means that all of the ticks have been killed; 0% means that none of the ticks have been killed.

[12] = system: cattle ticks (Boophilus microplus) Parkhurst strain, SP-resistant; test: Boophilus microplus dip test; type: in vivo; conditions: 20 ppm, assessed after 7 days
Procedure: Boophilus microplus—Dip Test
Test animals: cattle ticks (Boophilus microplus) Parkhurst strain, SP-resistant
Solvent: dimethyl sulphoxide
10 mg of active compound are dissolved in 0.5 ml of dimethyl sulphoxide. For the purpose of producing a suitable formulation, the active compound solution is diluted with water to the concentration desired in each case.
This active compound preparation is pipetted into tubes. 8-10 engorged adult female cattle ticks (Boophilus microplus) are transferred into a further tube with holes. The tube is immersed into the active compound formulation, and all the ticks are completely wetted. After the liquid has run out, the ticks are transferred on filter discs into plastic dishes and stored in a climate-controlled room.
The efficacy is assessed after 7 days by laying of fertile eggs. Eggs which are not visibly fertile are stored in a climate-controlled cabinet until the larvae hatch after about 42 days. An efficacy of 100% means that none of the ticks has laid any fertile eggs; 0% means that all the eggs are fertile.

For `C#CCn1c(C(=O)NC(c2ccc(Cl)c(C(F)(F)F)c2)C(F)(F)F)cc2cc(C(=O)NC3(C(N)=S)CC3)c(Cl)cc21` (stereo not drawn) [I-19], the “efficacy (laying of fertile eggs)” value [1] was 100%, the “efficacy (kill in %)” value [2] was 100% and the “efficacy (kill in %)” value [3] was 100%. The “efficacy (kill in %)” value [4] was 100%, the “nematicidal efficacy (formation of galls)” value [5] was 90% and the efficacy [6] was 100%. The efficacy [7] was 100%, the efficacy [8] was 100% and the “% efficacy” value [9] was 100%. The “log P” value [10] was 3.73.
In the case of `CCn1c(C(=O)NC(c2ccc(F)c(C(F)(F)F)c2)C(F)(F)F)nc2cc(C(=O)NC3(C(N)=S)CC3)c(Cl)cc21` (stereo not drawn) [I-30, N5-(1-Carbamothioylcyclopropyl)-6-chloro-1-ethyl-N2-{2,2,2-trifluoro-1-[4-fluoro-3-(trifluoromethyl)phenyl]ethyl}-1H-benzimidazole-2,5-dicarboxamide], the “efficacy (kill in %)” value [11] is reported as 100%, the “efficacy (laying of fertile eggs)” value [1] is reported as 100% and the “efficacy (laying of fertile eggs)” value [12] is reported as 100%. For the same molecule, the “efficacy (kill in %)” value [2] was 100%, the “efficacy (kill in %)” value [3] was 100% and the “efficacy (kill in %)” value [4] was 100%. It also gave an efficacy [6] of 100%, an efficacy [7] of 100% and an efficacy [8] of 100%. The “log P” value [10] was 3.46 and the chromatographic logP ([10]; reversed-phase C18 HPLC column, pH 2.7, HPLC) was 3.56.
